US10059717B2, “Urea compounds containing 3,4-dihydropyrimido[4,5-D]pyrimidin-2(1H)-one skeleton as protein kinase inhibitors” (KOREA INSTITUTE OF SCIENCE AND TECHNOLOGY, priority 2016, dated 2018)

What was measured:
TIE2/TEK = TIE2/TEK (Homo sapiens, UniProt Q02763); test: Kinase panel biochemical assay; settings: 1 μM single concentration, read-out: % residual enzyme activity
Method in brief: (§1)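 Biochemical kinase panel assay; test compound applied at a single concentration of 1 μM, and kinase inhibitory efficacy expressed as % residual enzyme activity.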

ERBB2/HER2 = ERBB2/HER2 (Homo sapiens, UniProt P04626); test: Kinase panel biochemical assay; settings: 1 μM single concentration, read-out: % residual enzyme activity
Method in brief: as §1

ERBB4/HER4 = ERBB4/HER4 (Homo sapiens, UniProt Q15303); test: Kinase panel biochemical assay; settings: 1 μM single concentration, read-out: % residual enzyme activity
Method in brief: as §1

HPK1/MAP4K1 = HPK1/MAP4K1 (Homo sapiens, UniProt Q92918); test: Kinase panel biochemical assay; settings: 1 μM single concentration, read-out: % residual enzyme activity
Method in brief: as §1

NEK11 = NEK11 (Homo sapiens, UniProt Q8NG66); test: Kinase panel biochemical assay; settings: 1 μM single concentration, read-out: % residual enzyme activity
Method in brief: as §1

TAOK2/TAO1 = TAOK2/TAO1 (Homo sapiens, UniProt Q9UL54); test: Kinase panel biochemical assay; settings: 1 μM single concentration, read-out: % residual enzyme activity
Method in brief: as §1

TRKA = TRKA (Homo sapiens, UniProt P04629); test: Kinase panel biochemical assay; settings: 1 μM single concentration, read-out: % residual enzyme activity
Method in brief: as §1

EPHA5 = EPHA5 (Homo sapiens, UniProt P54756); test: Kinase panel biochemical assay; settings: 1 μM single concentration, read-out: % residual enzyme activity
Method in brief: as §1

CSK = CSK (Homo sapiens, UniProt P41240); test: Kinase panel biochemical assay; settings: 1 μM single concentration, read-out: % residual enzyme activity
Method in brief: as §1

SIK3 = SIK3 (Homo sapiens, UniProt Q9Y2K2); test: Kinase panel biochemical assay; settings: 1 μM single concentration, read-out: % residual enzyme activity
Chain of SIK3 (Q9Y2K2 whole entry): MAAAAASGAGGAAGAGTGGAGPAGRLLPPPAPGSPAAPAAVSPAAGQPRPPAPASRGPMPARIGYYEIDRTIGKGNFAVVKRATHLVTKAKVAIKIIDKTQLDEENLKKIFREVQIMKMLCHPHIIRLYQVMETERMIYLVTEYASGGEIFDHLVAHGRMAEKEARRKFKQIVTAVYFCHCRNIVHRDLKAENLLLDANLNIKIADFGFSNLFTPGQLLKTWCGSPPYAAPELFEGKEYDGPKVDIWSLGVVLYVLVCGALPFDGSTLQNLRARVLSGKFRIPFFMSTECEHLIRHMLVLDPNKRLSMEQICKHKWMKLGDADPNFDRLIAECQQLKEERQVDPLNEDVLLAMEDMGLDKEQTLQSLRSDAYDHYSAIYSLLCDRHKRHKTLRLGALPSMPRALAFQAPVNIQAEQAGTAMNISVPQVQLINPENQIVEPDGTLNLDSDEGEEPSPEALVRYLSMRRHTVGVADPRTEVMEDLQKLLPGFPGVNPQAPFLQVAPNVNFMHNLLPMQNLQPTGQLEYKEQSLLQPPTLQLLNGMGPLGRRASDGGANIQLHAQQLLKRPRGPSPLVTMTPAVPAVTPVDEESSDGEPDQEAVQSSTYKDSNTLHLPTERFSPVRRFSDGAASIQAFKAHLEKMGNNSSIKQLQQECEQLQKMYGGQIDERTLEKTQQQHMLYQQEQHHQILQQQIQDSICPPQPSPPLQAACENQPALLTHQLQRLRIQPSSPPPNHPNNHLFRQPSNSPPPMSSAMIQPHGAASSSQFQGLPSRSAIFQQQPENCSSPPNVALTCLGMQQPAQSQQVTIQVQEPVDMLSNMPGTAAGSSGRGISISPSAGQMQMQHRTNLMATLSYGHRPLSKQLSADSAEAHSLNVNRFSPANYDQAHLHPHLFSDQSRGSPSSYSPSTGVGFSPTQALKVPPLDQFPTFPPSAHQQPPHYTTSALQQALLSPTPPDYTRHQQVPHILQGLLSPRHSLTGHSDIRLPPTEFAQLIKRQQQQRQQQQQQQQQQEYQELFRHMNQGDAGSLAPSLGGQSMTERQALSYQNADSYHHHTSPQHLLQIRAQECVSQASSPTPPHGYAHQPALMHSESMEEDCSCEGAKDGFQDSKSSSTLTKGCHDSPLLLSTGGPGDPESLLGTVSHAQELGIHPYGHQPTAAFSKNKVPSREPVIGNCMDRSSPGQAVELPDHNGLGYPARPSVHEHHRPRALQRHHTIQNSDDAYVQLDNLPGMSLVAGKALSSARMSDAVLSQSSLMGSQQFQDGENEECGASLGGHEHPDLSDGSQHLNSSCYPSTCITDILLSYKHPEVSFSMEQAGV
Method in brief: as §1

P38a/MAPK14 = P38a/MAPK14 (Homo sapiens, UniProt Q16539); test: Kinase panel biochemical assay; settings: 1 μM single concentration, read-out: % residual enzyme activity
Chain of P38a/MAPK14 (Q16539 whole entry): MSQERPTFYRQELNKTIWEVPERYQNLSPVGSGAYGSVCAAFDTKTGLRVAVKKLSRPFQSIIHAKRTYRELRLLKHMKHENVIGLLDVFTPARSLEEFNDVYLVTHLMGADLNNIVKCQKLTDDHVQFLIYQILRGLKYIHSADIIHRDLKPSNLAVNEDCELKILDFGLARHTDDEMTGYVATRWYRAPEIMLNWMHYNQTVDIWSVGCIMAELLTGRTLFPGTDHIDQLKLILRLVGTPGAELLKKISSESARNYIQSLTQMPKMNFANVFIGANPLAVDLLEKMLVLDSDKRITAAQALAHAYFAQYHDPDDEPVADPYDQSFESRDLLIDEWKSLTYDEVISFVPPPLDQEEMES
Method in brief: as §1

HIPK4 = HIPK4 (Homo sapiens, UniProt Q8NE63); test: Kinase panel biochemical assay; settings: 1 μM single concentration, read-out: % residual enzyme activity
Method in brief: as §1

EPHA2 = EPHA2 (Homo sapiens, UniProt P29317); test: Kinase panel biochemical assay; settings: 1 μM single concentration, read-out: % residual enzyme activity
Method in brief: as §1

EPHA1 = EPHA1 (Homo sapiens, UniProt P21709); test: Kinase panel biochemical assay; settings: 1 μM single concentration, read-out: % residual enzyme activity
Chain of EPHA1 (P21709 26-976): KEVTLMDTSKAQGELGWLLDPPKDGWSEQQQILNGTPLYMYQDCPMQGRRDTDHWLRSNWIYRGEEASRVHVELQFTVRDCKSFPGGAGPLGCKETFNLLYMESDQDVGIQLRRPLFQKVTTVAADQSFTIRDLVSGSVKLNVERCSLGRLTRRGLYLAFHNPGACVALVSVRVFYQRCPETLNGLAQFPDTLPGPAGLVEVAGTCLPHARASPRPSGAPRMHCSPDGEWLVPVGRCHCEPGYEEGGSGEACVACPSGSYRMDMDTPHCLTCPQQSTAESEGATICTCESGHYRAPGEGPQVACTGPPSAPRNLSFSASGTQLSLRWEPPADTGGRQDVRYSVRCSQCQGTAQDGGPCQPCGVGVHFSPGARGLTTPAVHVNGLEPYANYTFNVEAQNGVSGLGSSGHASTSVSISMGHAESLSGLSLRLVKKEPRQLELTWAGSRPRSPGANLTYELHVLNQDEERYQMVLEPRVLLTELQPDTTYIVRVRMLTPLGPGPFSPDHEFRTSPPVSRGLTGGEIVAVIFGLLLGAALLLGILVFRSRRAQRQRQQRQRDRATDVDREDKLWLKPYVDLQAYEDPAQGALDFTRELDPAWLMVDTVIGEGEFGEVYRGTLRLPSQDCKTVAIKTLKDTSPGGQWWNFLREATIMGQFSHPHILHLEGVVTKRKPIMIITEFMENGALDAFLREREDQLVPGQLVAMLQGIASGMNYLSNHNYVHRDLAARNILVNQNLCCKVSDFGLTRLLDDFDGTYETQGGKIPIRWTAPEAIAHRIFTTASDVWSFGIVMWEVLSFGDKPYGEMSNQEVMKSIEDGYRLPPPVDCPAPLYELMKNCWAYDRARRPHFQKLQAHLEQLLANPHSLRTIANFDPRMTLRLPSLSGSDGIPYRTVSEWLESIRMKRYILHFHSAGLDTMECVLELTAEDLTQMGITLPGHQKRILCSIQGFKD
Method in brief: as §1

TXK = TXK (Homo sapiens, UniProt P42681); test: Kinase panel biochemical assay; settings: 1 μM single concentration, read-out: % residual enzyme activity
Method in brief: as §1

FLT1NEGFR1 = FLT1NEGFR1 (Homo sapiens, UniProt P17948); test: Kinase panel biochemical assay; settings: 1 μM single concentration, read-out: % residual enzyme activity
Method in brief: as §1

FMS = FMS (Homo sapiens, UniProt P07333); test: Kinase panel biochemical assay; settings: 1 μM single concentration, read-out: % residual enzyme activity
Chain of FMS (P07333 20-972): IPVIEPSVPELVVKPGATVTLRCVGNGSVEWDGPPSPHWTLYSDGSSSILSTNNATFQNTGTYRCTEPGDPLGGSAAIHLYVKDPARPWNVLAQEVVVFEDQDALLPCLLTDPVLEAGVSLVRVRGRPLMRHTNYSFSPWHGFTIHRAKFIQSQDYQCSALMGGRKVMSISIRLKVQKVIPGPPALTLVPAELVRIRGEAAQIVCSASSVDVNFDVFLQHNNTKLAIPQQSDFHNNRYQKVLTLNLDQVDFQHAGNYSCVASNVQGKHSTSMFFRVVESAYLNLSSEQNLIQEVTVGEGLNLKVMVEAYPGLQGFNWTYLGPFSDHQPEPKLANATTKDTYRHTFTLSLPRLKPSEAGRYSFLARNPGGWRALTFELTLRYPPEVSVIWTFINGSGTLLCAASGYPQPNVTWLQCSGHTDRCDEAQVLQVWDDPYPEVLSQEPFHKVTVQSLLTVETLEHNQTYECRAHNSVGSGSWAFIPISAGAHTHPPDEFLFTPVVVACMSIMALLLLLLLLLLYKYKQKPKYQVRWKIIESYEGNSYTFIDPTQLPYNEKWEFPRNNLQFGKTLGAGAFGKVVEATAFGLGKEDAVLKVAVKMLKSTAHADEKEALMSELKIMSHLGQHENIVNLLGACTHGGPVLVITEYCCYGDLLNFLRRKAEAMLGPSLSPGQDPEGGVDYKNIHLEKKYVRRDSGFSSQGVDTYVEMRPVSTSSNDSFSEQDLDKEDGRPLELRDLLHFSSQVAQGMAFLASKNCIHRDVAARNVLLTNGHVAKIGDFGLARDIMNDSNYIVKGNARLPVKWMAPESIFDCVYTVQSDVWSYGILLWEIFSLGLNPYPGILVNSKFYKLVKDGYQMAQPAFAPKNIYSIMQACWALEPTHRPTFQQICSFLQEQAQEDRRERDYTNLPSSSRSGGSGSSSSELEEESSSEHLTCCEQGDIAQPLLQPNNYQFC
Method in brief: as §1

FGFR1 = FGFR1 (Homo sapiens, UniProt P11362); test: Kinase panel biochemical assay; settings: 1 μM single concentration, read-out: % residual enzyme activity
Method in brief: as §1

PKAcg = PKAcg (Homo sapiens, UniProt P22612); test: Kinase panel biochemical assay; settings: 1 μM single concentration, read-out: % residual enzyme activity
Chain of PKAcg (P22612 whole entry): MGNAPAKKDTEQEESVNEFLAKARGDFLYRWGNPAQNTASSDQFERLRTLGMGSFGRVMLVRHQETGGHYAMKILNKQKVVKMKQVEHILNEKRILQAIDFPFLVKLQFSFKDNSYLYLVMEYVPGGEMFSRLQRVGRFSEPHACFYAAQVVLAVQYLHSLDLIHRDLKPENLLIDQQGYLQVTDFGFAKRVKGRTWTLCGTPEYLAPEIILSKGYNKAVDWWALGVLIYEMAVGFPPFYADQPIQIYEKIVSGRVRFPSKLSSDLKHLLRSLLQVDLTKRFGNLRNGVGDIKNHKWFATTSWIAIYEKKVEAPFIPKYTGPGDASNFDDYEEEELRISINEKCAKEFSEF
Method in brief: as §1

MLCK2/MYLK2 = MLCK2/MYLK2 (Homo sapiens, UniProt Q9H1R3); test: Kinase panel biochemical assay; settings: 1 μM single concentration, read-out: % residual enzyme activity
Method in brief: as §1

TRKC = TRKC (Homo sapiens, UniProt Q16288); test: Kinase panel biochemical assay; settings: 1 μM single concentration, read-out: % residual enzyme activity
Method in brief: as §1

FLT3 = FLT3 (Homo sapiens, UniProt P36888); test: Kinase panel biochemical assay; settings: 1 μM single concentration, read-out: % residual enzyme activity
Method in brief: as §1

P38b/MAPK11 = P38b/MAPK11 (Homo sapiens, UniProt Q15759); test: Kinase panel biochemical assay; settings: 1 μM single concentration, read-out: % residual enzyme activity
Method in brief: as §1

ZAK/MLTK = ZAK/MLTK (Homo sapiens, UniProt Q9NYL2); test: Kinase panel biochemical assay; settings: 1 μM single concentration, read-out: % residual enzyme activity
Chain of ZAK/MLTK (Q9NYL2 whole entry): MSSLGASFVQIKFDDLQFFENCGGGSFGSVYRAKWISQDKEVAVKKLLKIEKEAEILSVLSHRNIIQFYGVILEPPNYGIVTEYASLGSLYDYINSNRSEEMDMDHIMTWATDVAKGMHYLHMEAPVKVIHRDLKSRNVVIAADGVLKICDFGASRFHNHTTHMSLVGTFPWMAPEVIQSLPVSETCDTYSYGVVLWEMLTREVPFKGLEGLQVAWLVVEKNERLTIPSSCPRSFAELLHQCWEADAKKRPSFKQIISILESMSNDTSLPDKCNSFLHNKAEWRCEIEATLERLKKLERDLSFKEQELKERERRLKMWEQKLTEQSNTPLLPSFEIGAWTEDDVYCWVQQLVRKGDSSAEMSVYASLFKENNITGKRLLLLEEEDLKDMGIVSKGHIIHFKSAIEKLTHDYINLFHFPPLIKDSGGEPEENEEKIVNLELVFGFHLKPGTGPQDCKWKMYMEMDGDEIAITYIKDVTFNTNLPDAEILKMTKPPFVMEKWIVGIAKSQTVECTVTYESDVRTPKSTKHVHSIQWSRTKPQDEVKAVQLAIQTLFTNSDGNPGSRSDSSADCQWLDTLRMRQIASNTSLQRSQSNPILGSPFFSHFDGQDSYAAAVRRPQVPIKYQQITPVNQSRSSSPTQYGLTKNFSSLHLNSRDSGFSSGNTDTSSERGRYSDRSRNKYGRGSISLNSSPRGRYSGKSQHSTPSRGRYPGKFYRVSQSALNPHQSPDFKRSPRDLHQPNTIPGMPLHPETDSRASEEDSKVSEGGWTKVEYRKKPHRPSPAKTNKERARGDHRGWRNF
Method in brief: as §1

ACK1 = ACK1 (Homo sapiens, UniProt Q07912); test: Kinase panel biochemical assay; settings: 1 μM single concentration, read-out: % residual enzyme activity
Method in brief: as §1

OCI-AML3 (N-Ras Q61L) = test: Proliferation inhibitory activity, OCI-AML3; assay type: cell-based; settings: Homo sapiens, OCI-AML-3; OCI-AML3 (N-Ras Q61L) cell line; read-out: Proliferation inhibitory efficacy (GI50, μM) OCI-AML3 (N-Ras Q61L)
Protocol: GI50 values were calculated by measuring the proliferation inhibitory efficacy of the compounds of the present invention on mt-NRAS (G12D) Ba/F3, U937 (wt-NRAS) and OCI-AML3 (mt-NRAS) cell lines.
Accordingly, the compounds of the present invention are particularly effective as a therapeutic agent for acute myelogenous leukemia (AML).

CCN1CCN(C(=O)c2ccc(Nc3ncc4c(n3)N(C)C(=O)N(c3cc(NC(=O)Nc5ccccc5OC)ccc3C)C4)cn2)CC1 [Compound No. 14, 1-(3-(7-((6-(4-ethylpiperazin-1-carbonyl)pyridin-3-yl)amino)-1-methyl-2-oxo-1,4-dihydropyrimido[4,5-d]pyrimidin-3(2H)-yl)-4-methylphenyl)-3-(2-methoxyphenyl)urea]
remaining activity at 1 µM (TIE2/TEK): ≤ 30% | remaining activity at 1 µM (ERBB2/HER2): ≤ 30% | remaining activity at 1 µM (ERBB4/HER4): ≤ 30% | remaining activity at 1 µM (HPK1/MAP4K1): ≤ 30% | remaining activity at 1 µM (NEK11): ≤ 30% | remaining activity at 1 µM (TAOK2/TAO1): ≤ 30% | remaining activity at 1 µM (TRKA): ≤ 30% | remaining activity at 1 µM (EPHA5): ≤ 30% | remaining activity at 1 µM (CSK): ≤ 30% | remaining activity at 1 µM (SIK3): ≤ 30% | remaining activity at 1 µM (P38a/MAPK14): ≤ 30% | remaining activity at 1 µM (HIPK4): ≤ 30% | remaining activity at 1 µM (EPHA2): ≤ 30% | remaining activity at 1 µM (EPHA1): ≤ 30% | remaining activity at 1 µM (TXK): ≤ 30% | remaining activity at 1 µM (FLT1NEGFR1): ≤ 30% | remaining activity at 1 µM (FMS): ≤ 30% | remaining activity at 1 µM (FGFR1): ≤ 30% | remaining activity at 1 µM (PKAcg): ≤ 30% | remaining activity at 1 µM (MLCK2/MYLK2): ≤ 30% | remaining activity at 1 µM (TRKC): ≤ 30% | remaining activity at 1 µM (FLT3): ≤ 30% | remaining activity at 1 µM (P38b/MAPK11): ≤ 30% | remaining activity at 1 µM (ZAK/MLTK): ≤ 30% | remaining activity at 1 µM (ACK1): ≤ 30% | GI50 (OCI-AML3 (N-Ras Q61L)): < 0.5 µM
